# Values quoted from earlier work as cited in PubChem BioAssay AID1259409 (Chemical Carcinogenesis Research Information System (CCRIS), 2018).
# Test system: rodent chemically induced tumor inhibition, incidence and multiplicity
# Assay: CCRIS tumor inhibitor studies
# Settings: Route [Inhibitor]: ORAL, Species: RAT
structure (smiles),measurement,setting,value
C=CC1=C(C)C2=CC3=NC(=C(CC(=O)O)C4=NC(=C(C)C4=C(O)O)C=c4[nH]c(c(C)c4CC)=CC1=N2)C(CCC(=O)O)C3C (stereo not given),"tumour outcome (control, treated, inhibition, significance)","Carcinogen: 1,2-DIMETHYLHYDRAZINE [540-73-8], Dose [Inhibitor]: 0, 0.001% (W/V BASED ON TOTAL CHLORINS) IN DRINKING WATER BEGINNING 1 WK POST CARCINOGEN TREATMENT FOR THE DURATION STUD, Strain/Sex: F344/MALE, Target Tissue: Type of Lesion: COLON: TUMOR, Dose [Carcinogen]: 20 MG/KG FOR FIRST 5 WK (STUDY DURATION: 52 WK), Promoter: NONE","20/23 (87%), 18/20 (90%), -3.4%, not significant"
same,"tumour outcome (control, treated, inhibition, significance)","Carcinogen: 1,2-DIMETHYLHYDRAZINE [540-73-8], Dose [Inhibitor]: 0, 0.001% (W/V BASED ON TOTAL CHLORINS) IN DRINKING WATER BEGINNING 1 WK POST CARCINOGEN TREATMENT FOR THE DURATION STUD, Strain/Sex: F344/MALE, Target Tissue: Type of Lesion: SMALL INTESTINE: TUMOR, Dose [Carcinogen]: 20 MG/KG BW/WK FOR FIRST 5 WK (STUDY DURATION: 52 WK), Promoter: NONE","12/23 (52%), 6/20 (30%), 42%, not significant"
same,"tumour outcome (control, treated, inhibition, significance)","Carcinogen: 1,2-DIMETHYLHYDRAZINE [540-73-8], Dose [Inhibitor]: 0, 0.01% (W/V BASED ON TOTAL CHLORINS) IN DRINKING WATER BEGINNING 1 WK POST CARCINOGEN TREATMENT FOR THE DURATION STUDY, Strain/Sex: F344/MALE, Target Tissue: Type of Lesion: SMALL INTESTINE: TUMOR, Dose [Carcinogen]: 20 MG/KG BW/WK FOR FIRST 5 WK (STUDY DURATION: 52 WK), Promoter: NONE","12/23 (52%), 11/20 (55%), -6%, not significant"
same,"tumour outcome (control, treated, inhibition, significance)","Carcinogen: 1,2-DIMETHYLHYDRAZINE [540-73-8], Dose [Inhibitor]: 0, 0.1% (W/V BASED ON TOTAL CHLORINS) IN DRINKING WATER BEGINNING 1 WK POST CARCINOGEN TREATMENT FOR THE DURATION STUDY, Strain/Sex: F344/MALE, Target Tissue: Type of Lesion: SMALL INTESTINE: TUMOR, Dose [Carcinogen]: 20 MG/KG BW/WK FOR FIRST 5 WK (STUDY DURATION: 52 WK), Promoter: NONE","12/23 (52%), 5/20 (25%), 52%, not significant"
same,"tumour outcome (control, treated, inhibition, significance)","Carcinogen: 1,2-DIMETHYLHYDRAZINE [540-73-8], Strain/Sex: F344/MALE, Target Tissue: Type of Lesion: COLON: TUMOR, Dose [Carcinogen]: 20 MG/KG FOR FIRST 5 WK (STUDY DURATION: 52 WK), Promoter: NONE","20/23 (87%), 20/20 (100%), -15%, not significant"
same,"tumour outcome (control, treated, inhibition, significance)","Carcinogen: 2-AMINO-1-METHYL-6-PHENYL-1H-IMIDAZO[4,5-B]PYRID INE, 105650-23-5, Dose [Inhibitor]: 0, 1% IN THE DIET FOR 52 WK (STUDY DURATION: 52 WK), Strain/Sex: F344/FEMALE, Target Tissue: Type of Lesion: MAMMARY GLAND: ADENOCARCINOMA, Dose [Carcinogen]: 0.02% IN THE DIET FOR 52 WK, Promoter: NONE USED","8/20 (40%), 3/20 (15%), 63%, not significant"
same,"tumour outcome (control, treated, inhibition, significance)","Carcinogen: 2-AMINO-1-METHYL-6-PHENYL-1H-IMIDAZO[4,5-B]PYRID INE, 105650-23-5, Dose [Inhibitor]: 0, 1% IN THE DIET FOR 52 WK (STUDY DURATION: 52 WK), Strain/Sex: F344/FEMALE, Target Tissue: Type of Lesion: MAMMARY GLAND: FIBROADENOMA, Dose [Carcinogen]: 0.02% IN THE DIET FOR 52 WK, Promoter: NONE USED","2/20 (10%), 0/20 (0%), 100%, not significant"
same,"tumour outcome (control, treated, inhibition, significance)","Carcinogen: 2-AMINO-3-METHYLIMIDAZO[4,5-F]QUINOLINE [76180-96-6], Dose [Inhibitor]: 0, 0.001% (W/V BASED ON TOTAL CHLORINS) IN DRINKING WATER BEGINNING 1 WK POST CARCINOGEN TREATMENT FOR THE DURATION STUD, Strain/Sex: F344/MALE, Target Tissue: Type of Lesion: COLON: TUMOR, Dose [Carcinogen]: 0.03% IN DIET FOR FIRST 5 WK (STUDY DURATION: 52 WK), Promoter: NONE","2/22 (9%), 2/20 (10%), -11%, not significant"
same,"tumour outcome (control, treated, inhibition, significance)","Carcinogen: 2-AMINO-3-METHYLIMIDAZO[4,5-F]QUINOLINE [76180-96-6], Dose [Inhibitor]: 0, 0.001% (W/V BASED ON TOTAL CHLORINS) IN DRINKING WATER BEGINNING 1 WK POST CARCINOGEN TREATMENT FOR THE DURATION STUD, Strain/Sex: F344/MALE, Target Tissue: Type of Lesion: LIVER: TUMOR, Dose [Carcinogen]: 0.03% IN DIET FOR FIRST 5 WK (STUDY DURATION: 52 WK), Promoter: NONE","16/22 (73%), 12/20 (60%), 18%, not significant"
same,"tumour outcome (control, treated, inhibition, significance)","Carcinogen: 2-AMINO-3-METHYLIMIDAZO[4,5-F]QUINOLINE [76180-96-6], Dose [Inhibitor]: 0, 0.001% (W/V BASED ON TOTAL CHLORINS) IN DRINKING WATER BEGINNING 1 WK POST CARCINOGEN TREATMENT FOR THE DURATION STUD, Strain/Sex: F344/MALE, Target Tissue: Type of Lesion: SKIN: TUMOR, Dose [Carcinogen]: 0.03% IN DIET FOR FIRST 5 WK (STUDY DURATION: 52 WK), Promoter: NONE","7/22 (32%), 5/20 (25%), 22%, not significant"
same,outcome,"Carcinogen: 2-AMINO-3-METHYLIMIDAZO[4,5-F]QUINOLINE [76180-96-6], Dose [Inhibitor]: 0, 0.001% (W/V BASED ON TOTAL CHLORINS) IN DRINKING WATER BEGINNING 1 WK POST CARCINOGEN TREATMENT FOR THE DURATION STUD, Strain/Sex: F344/MALE, Target Tissue: Type of Lesion: SMALL INTESTINE: TUMOR, Dose [Carcinogen]: 0.03% IN DIET FOR FIRST 5 WK (STUDY DURATION: 52 WK), Promoter: NONE","0/22 (0%), 1/20 (5%), -%, not significant"
same,"tumour outcome (control, treated, inhibition, significance)","Carcinogen: 2-AMINO-3-METHYLIMIDAZO[4,5-F]QUINOLINE [76180-96-6], Dose [Inhibitor]: 0, 0.001% (W/V BASED ON TOTAL CHLORINS) IN DRINKING WATER BEGINNING 1 WK POST CARCINOGEN TREATMENT FOR THE DURATION STUD, Strain/Sex: F344/MALE, Target Tissue: Type of Lesion: ZYMBAL'S GLAND: TUMOR, Dose [Carcinogen]: 0.03% IN DIET FOR FIRST 5 WK (STUDY DURATION: 52 WK), Promoter: NONE","5/22 (23%), 3/20 (15%), 35%, not significant"
same,"tumour outcome (control, treated, inhibition, significance)","Carcinogen: 2-AMINO-3-METHYLIMIDAZO[4,5-F]QUINOLINE [76180-96-6], Dose [Inhibitor]: 0, 0.01% (W/V BASED ON TOTAL CHLORINS) IN DRINKING WATER BEGINNING 1 WK POST CARCINOGEN TREATMENT FOR THE DURATION STUDY, Strain/Sex: F344/MALE, Target Tissue: Type of Lesion: COLON: TUMOR, Dose [Carcinogen]: 0.03% IN DIET FOR FIRST 5 WK (STUDY DURATION: 52 WK), Promoter: NONE","2/22 (9%), 2/20 (10%), -11%, not significant"
same,"tumour outcome (control, treated, inhibition, significance)","Carcinogen: 2-AMINO-3-METHYLIMIDAZO[4,5-F]QUINOLINE [76180-96-6], Dose [Inhibitor]: 0, 0.01% (W/V BASED ON TOTAL CHLORINS) IN DRINKING WATER BEGINNING 1 WK POST CARCINOGEN TREATMENT FOR THE DURATION STUDY, Strain/Sex: F344/MALE, Target Tissue: Type of Lesion: LIVER: TUMOR, Dose [Carcinogen]: 0.03% IN DIET FOR FIRST 5 WK (STUDY DURATION: 52 WK), Promoter: NONE","16/22 (73%), 10/20 (50%), 31.5%, not significant"
same,"tumour outcome (control, treated, inhibition, significance)","Carcinogen: 2-AMINO-3-METHYLIMIDAZO[4,5-F]QUINOLINE [76180-96-6], Dose [Inhibitor]: 0, 0.01% (W/V BASED ON TOTAL CHLORINS) IN DRINKING WATER BEGINNING 1 WK POST CARCINOGEN TREATMENT FOR THE DURATION STUDY, Strain/Sex: F344/MALE, Target Tissue: Type of Lesion: SKIN: TUMOR, Dose [Carcinogen]: 0.03% IN DIET FOR FIRST 5 WK (STUDY DURATION: 52 WK), Promoter: NONE","7/22 (32%), 7/20 (35%), -9%, not significant"
